Measured values published in patent publication US6001597A, “Compositions and methods for producing heterologous polypeptides in Pichia methanolica” (ZymoGenetics, Inc., priority 1998, dated 1999).

Tested on: P. mathanolica cells (strain CBS6515, UV-mutagenized)
Assay: Nystatin enrichment for auxotrophic mutants: titering of colony forming units, nystatin-treated versus control cells
Type: cell-based, Pichia methanolica
Settings: 1 mg nystatin added to remainder of 500 ml culture in minimal broth with 5 g/L ammonium sulfate, incubated one additional hour; versus control cells without nystatin
Method: The cells are then transferred to a culture medium deficient in assimilable nitrogen so that cellular nitrogen stores are depleted. By "deficient in assimilable nitrogen" it is meant that the medium lacks an amount of nitrogen sufficient to support growth of the cells. Depletion of cellular nitrogen stores will generally require about 12 to 24 hours of incubation, with 16 hours being sufficient under common conditions. Following depletion of nitrogen stores, the cells are cultured in a defined culture medium comprising an inorganic nitrogen source and an amount of an antifungal antibiotic sufficient to kill growing P. mathanolica cells. The antibiotic nystatin (mycostatin) is particularly preferred. Preferred inorganic nitrogen sources are those comprising ammonium ions, such as ammonium sulfate. In general, the medium will contain 10-200 mM ammonium, preferably about 60 mM ammonium. Nystatin is included at a concentration of 0.1 to 100 mg/l, preferably 0.5 to 20 mg/L, more preferably about 2 mg/L ([…]). […] Those skilled in the art will recognize that the actual antibiotic concentration and exposure time required to kill prototrophic cells can be readily determined empirically,and certain adjustments may be necessary to compensate for variations in specific activity between individual batches of antibiotic. […]

C[C@@H]1[C@H](O)[C@@H](C)/C=C/C=C/CC/C=C/C=C/C=C/C=C/C(O[C@H]2O[C@H](C)[C@@H](O)[C@H](N)[C@@H]2O)CC2O[C@](O)(CC(O)C(O)CCC(O)CC(O)CC(O)CC(=O)O[C@H]1C)CC(O)C2C(=O)O (stereo partly shown) [nystatin]
decrease in the number of viable cells (colony forming units), factor: 10^4
